Active and inactive are the calls of the source. The rule behind the calls is not given here.
How the values were obtained:
Assay type in all cases: functional, cell-based
Settings in all cases: time 21.0 day
Mesenchymal stem cells [1] = experiment: Induction of osteogenesis differentiation in human Mesenchymal stem cells at 10 uM incubated for 21 days by Alizarin Red S staining-based microscopic analysis
Mesenchymal stem cells [2] = experiment: Induction of osteogenesis differentiation in human Mesenchymal stem cells at 20 uM incubated for 21 days by Alizarin Red S staining-based microscopic analysis
Mesenchymal stem cells [3] = experiment: Induction of adipogenesis differentiation in human Mesenchymal stem cells at 20 uM incubated for 21 days by […] staining-based microscopic analysis
Mesenchymal stem cells [4] = experiment: Induction of adipogenesis differentiation in human Mesenchymal stem cells at 1 uM incubated for 21 days by […] staining-based microscopic analysis
Mesenchymal stem cells [5] = experiment: Induction of osteogenesis differentiation in human Mesenchymal stem cells at 1 uM incubated for 21 days by Alizarin Red S staining-based microscopic analysis
Mesenchymal stem cells [6] = experiment: Induction of adipogenesis differentiation in human Mesenchymal stem cells at 10 uM incubated for 21 days by […] staining-based microscopic analysis

SMILES | Activity (Mesenchymal stem cells [1]) | Activity (Mesenchymal stem cells [2]) | Activity (Mesenchymal stem cells [3]) | Activity (Mesenchymal stem cells [4]) | Activity (Mesenchymal stem cells [5]) | Activity (Mesenchymal stem cells [6])
Cc1nn(-c2ccc(C(F)(F)F)cc2)nc1CNc1ccc(/C=C/C(=O)O)cc1 | Active | Active | Active | Active | Active | Active
Cc1nc(-c2ccc(C(F)(F)F)c(F)c2)sc1CNc1ccc(/C=C/C(=O)O)cc1 | inactive | inactive | Active | inactive | Active | Active
CCN(Cc1sc(-c2ccc(C(F)(F)F)cc2)nc1C)c1ccc(/C=C/C(=O)O)cc1 | Active | Active | Active | Active | Active | Active
COC(=O)/C=C/c1ccc(OCc2sc(-c3cccc(C(F)(F)F)c3)nc2C)cc1 | – | – | – | Active | inactive | –
Cc1nc(-c2cccc(C(F)(F)F)c2)sc1COc1ccc(/C=C/C(=O)O)cc1 | – | – | – | Active | Active | –
Cc1sc(-c2ccc(C(F)(F)F)cc2)nc1CN(C)c1ccc(/C=C/C(=O)O)cc1 | Active | inactive | inactive | inactive | Active | inactive
Cc1nc(-c2ccccc2)sc1COc1ccc(/C=C/C(=O)O)cc1 | inactive | – | – | Active | inactive | Active
Cc1nc(-c2ccc(C(F)(F)F)cc2)sc1CN(C)c1ccc(/C=C/C(=O)O)c(C(C)C)c1 | Active | Active | inactive | inactive | Active | inactive
Cc1nc(-c2cccc(C(F)(F)F)c2)sc1CNc1ccc(/C=C/C(=O)O)cc1 | inactive | inactive | Active | Active | inactive | Active
Cc1nc(-c2cccc(C(F)(F)F)c2)sc1CN(C)c1ccc(/C=C/C(=O)O)cc1 | inactive | inactive | Active | inactive | Active | Active
Cc1nc(-c2ccc(C(F)(F)F)c(F)c2)sc1CN(C(=O)OC(C)(C)C)c1ccc(/C=C/C(=O)O)cc1 | inactive | inactive | Active | inactive | Active | Active
Cc1nc(-c2ccc(C(F)(F)F)cc2)sc1CN(c1ccc(/C=C/C(=O)O)cc1)C(C)C | Active | Active | inactive | inactive | Active | inactive
Cc1nc(-c2ccc(C(F)(F)F)c(F)c2)sc1CN(C)c1ccc(/C=C/C(=O)O)cc1 | inactive | inactive | Active | inactive | Active | inactive
Cc1nc(-c2ccccc2)sc1CNc1ccc(/C=C/C(=O)O)cc1 | inactive | – | – | Active | Active | Active
Cc1nc(-c2ccccc2)sc1CSc1ccc(/C=C/C(=O)O)cc1 | inactive | – | – | Active | Active | Active
Cc1nc(-c2ccc(C(F)(F)F)cc2)sc1CN(Cc1sc(-c2ccc(C(F)(F)F)cc2)nc1C)c1ccc(/C=C/C(=O)O)cc1 | inactive | – | – | inactive | Active | inactive
COC(=O)/C=C/c1ccc(OCc2sc(-c3ccc(C(F)(F)F)cc3)nc2C)cc1 | – | – | – | Active | inactive | –
